Laboratory results reported in ChEMBL document CHEMBL1921758, “Indole alkaloids and quassinoids from the stems of Brucea mollis” (J Nat Prod, 2011).
pIC50: −log10 of the molar value.

How the values were obtained:
Format in all cases: functional, cell-based
HCT-8 = assay: Cytotoxicity against human HCT8 cells by MTT assay
Bel-7402 = assay: Cytotoxicity against human Bel7402 cells by MTT assay
A549 = assay: Cytotoxicity against human A549 cells by MTT assay
[1] = Cytotoxicity against human […] cells by MTT assay
A2780 = assay: Cytotoxicity against human A2780 cells by MTT assay

## CC1=CC(=O)[C@@H](O)[C@]2(C)[C@H]3[C@@H](O)[C@H](O)[C@H](CO)[C@@H]4[C@@H](O)C(=O)O[C@H](C[C@@H]12)[C@@]43C (relative stereo)
HCT-8
  pIC50: 5.47
Bel-7402
  pIC50: 5.36
A549
  pIC50: < 5.00
[1]
  pIC50: 5.52
A2780
  pIC50: < 5.00

## CC1=CC(=O)O[C@H]1[C@@]1(C)C[C@H]2OC(=O)[C@H](O)[C@H]3[C@@H](CO)[C@@H](O)[C@H](O)[C@H]1[C@]32C (relative stereo)
HCT-8
  pIC50: < 5.00
Bel-7402
  pIC50: < 5.00
A549
  pIC50: < 5.00
[1]
  pIC50: < 5.00
A2780
  pIC50: < 5.00

## CC1=CC(=O)[C@@H](O)[C@]2(C)[C@H]3[C@@H](O)[C@H](O)[C@]4(C)OC[C@@]35[C@@H](C[C@@H]12)OC(=O)[C@H](O)[C@]54O [BRUCEINE D]
HCT-8
  pIC50: 5.24
Bel-7402
  pIC50: 5.45
A549
  pIC50: < 5.00
[1]
  pIC50: 5.42
A2780
  pIC50: < 5.00

## CC1(C)C(=O)C(=O)c2c1[nH]c1ccccc21 [BRUCEOLLINE E]
HCT-8
  pIC50: < 5.00
Bel-7402
  pIC50: < 5.00
A549
  pIC50: < 5.00
[1]
  pIC50: < 5.00
A2780
  pIC50: < 5.00

## CC(C)(O)[C@@H](O)Cc1cn([C@@H]2O[C@H](CO)[C@@H](O)[C@H](O)[C@H]2O)c2ccccc12 [BRUCEOLLINE F]
HCT-8
  pIC50: < 5.00
Bel-7402
  pIC50: < 5.00
A549
  pIC50: < 5.00
[1]
  pIC50: < 5.00
A2780
  pIC50: < 5.00

## CC1(C)C(=O)C(=O)c2c1[nH]c1cc(O)ccc21 [BRUCEOLLINE H]
HCT-8
  pIC50: < 5.00
Bel-7402
  pIC50: < 5.00
A549
  pIC50: < 5.00
[1]
  pIC50: < 5.00
A2780
  pIC50: < 5.00

## CC1(C)c2[nH]c3cc(O)ccc3c2C(=O)[C@@H]1O [BRUCEOLLINE I]
HCT-8
  pIC50: < 5.00
Bel-7402
  pIC50: < 5.00
A549
  pIC50: < 5.00
[1]
  pIC50: < 5.00
A2780
  pIC50: < 5.00

## CC1(C)c2[nH]c3ccccc3c2C(=O)[C@@H]1O [BRUCEOLLINE J]
HCT-8
  pIC50: < 5.00
Bel-7402
  pIC50: < 5.00
A549
  pIC50: < 5.00
[1]
  pIC50: < 5.00
A2780
  pIC50: < 5.00

## CC1(C)c2[nH]c3ccccc3c2C(=O)[C@@H]1O[C@@H]1O[C@H](CO)[C@@H](O)[C@H](O)[C@H]1O [BRUCEOLLINE K]
HCT-8
  pIC50: < 5.00
Bel-7402
  pIC50: < 5.00
A549
  pIC50: < 5.00
[1]
  pIC50: < 5.00
A2780
  pIC50: < 5.00

## CC(C)[C@@H](O)C(=O)c1c[nH]c2ccccc12 [BRUCEOLLINE L]
HCT-8
  pIC50: < 5.00
Bel-7402
  pIC50: < 5.00
A549
  pIC50: < 5.00
[1]
  pIC50: < 5.00
A2780
  pIC50: < 5.00

## CC(C)(O)C(=O)Cc1cn([C@@H]2O[C@H](CO)[C@@H](O)[C@H](O)[C@H]2O)c2ccccc12 [BRUCEOLLINE M]
HCT-8
  pIC50: < 5.00
Bel-7402
  pIC50: < 5.00
A549
  pIC50: < 5.00
[1]
  pIC50: < 5.00
A2780
  pIC50: < 5.00

## CC(C)(O)[C@@H](O)C[C@]1(O)C(=O)N([C@@H]2O[C@H](CO)[C@@H](O)[C@H](O)[C@H]2O)c2ccccc21 [BRUCEOLLINE N]
HCT-8
  pIC50: < 5.00
Bel-7402
  pIC50: < 5.00
A549
  pIC50: < 5.00
[1]
  pIC50: < 5.00
A2780
  pIC50: < 5.00

## COc1cccc2c1C(=O)c1c(O)c3c(c(O)c1C2=O)C[C@@](O)(C(=O)CO)C[C@@H]3O[C@H]1C[C@H](N)[C@H](O)[C@H](C)O1 [DOXORUBICIN]
HCT-8
  pIC50: 6.38
Bel-7402
  pIC50: 6.28
A549
  pIC50: 6.14
[1]
  pIC50: 6.01
A2780
  pIC50: 6.48

## CC1=CC(=O)[C@@H](O)[C@@]2(C)[C@H]1[C@@H](O)[C@H]1OC(=O)[C@H](O)[C@]3(O)[C@]14CO[C@]3(CO)[C@@H](O)[C@H](O)[C@H]24 [YADANZIOLIDE B]
HCT-8
  pIC50: 5.48
Bel-7402
  pIC50: 5.37
A549
  pIC50: 5.42
[1]
  pIC50: 5.31
A2780
  pIC50: < 5.00

## CC1=CC(=O)[C@@H](O)[C@]2(C)[C@H]3[C@@H](O)[C@H](O)[C@H](CO[C@@H]4O[C@H](CO)[C@@H](O)[C@H](O)[C@H]4O)[C@@H]4[C@@H](O)C(=O)O[C@H](C[C@@H]12)[C@@]43C [YADANZIOLIDE U]
HCT-8
  pIC50: < 5.00
Bel-7402
  pIC50: < 5.00
A549
  pIC50: < 5.00
[1]
  pIC50: < 5.00
A2780
  pIC50: < 5.00
